pIC50: −log10 of the molar value. Where two headings read alike, the source gives them in different places.
Columns and labels:
[1] = molecular target: purified recombinant HIV RT (Human immunodeficiency virus type 1 group M subtype B, UniProt P03366); assay: biochemical
HIV-1 strain HTLVIIIB = assay: anti-HIV activity: inhibition of replication of HIV-1 strain HTLVIIIB in PBMC; format: cell-based; conditions: for inhibition at 1 µM: at concentrations ≧1 μM; for pIC50: read-out: IC50 [HTLVHIB]
cytotoxicity (CC50) = format: cell-based; conditions: CC50 values
[2] = Human immunodeficiency virus 1, PBMC
[3] = Human immunodeficiency virus 1, peripheral blood mononuclear cells (PBMC) from healthy volunteer donors

Row | Structure (SMILES) | pIC50 [1] | inhibition at 1 µM (HIV-1 strain HTLVIIIB; [2]) [%] | pIC50 (HIV-1 strain HTLVIIIB; [3]) | melting point [°C] | CC (cytotoxicity (CC50)) [µM] | pIC50 (HIV-1 strain HTLVIIIB; [2])
1 | S=C(NCCc1ccc(Cl)cc1)Nc1ccc(Br)cn1 [V, reference compound] | 5.60 |  |  |  |  | 
2 | S=C(NCCOc1ccccc1)Nc1ccc(Br)cn1 [IV, N-[2-(Phenoxy)ethyl]-N′-[2-(5-bromopyridyl)]thiourea] | 5.82 | 100 | 8.30 | 162 to 163 | 92 | 
3 | S=C(NCCOc1ccccc1)Nc1ccc(Cl)cn1 [III, N -[2-(Phenoxy)ethyl]-N′-[2-(5-chloropyridyl)]thiourea] | 5.82 | 100 | 8.40 |  | >100 | 
4 | Oc1ccc(CCNC(=S)Nc2ccc(Br)cn2)cc1 [VII, reference compound] | 4.06 |  |  |  | >100 | 5.51
5 | S=C(NCCOc1ccccc1)Nc1ccccn1 [II, N-[2-(Phenoxy)ethyl]-N′-[2-(pyridyl)]thiourea] | 5.00 | 100 | 8.30 |  | 55 | 
